Experiments:
human GPR14 = molecular target: T1, human GPR14 (Homo sapiens, UniProt Q9UKP6); experiment: Inhibition of binding of [125I]-labeled human urotensin II to GPR14 using human GPR14-expressing CHO cell membrane fraction; conditions: concentration showing 50% inhibition of human GPR14 binding activity, 1nM [125I]-labeled human urotensin II, 25°C for 3 hours, read-out: Inhibitory concentration
T1 construct: expressed in transfected cells
T1 sequence (Q9UKP6 1-389): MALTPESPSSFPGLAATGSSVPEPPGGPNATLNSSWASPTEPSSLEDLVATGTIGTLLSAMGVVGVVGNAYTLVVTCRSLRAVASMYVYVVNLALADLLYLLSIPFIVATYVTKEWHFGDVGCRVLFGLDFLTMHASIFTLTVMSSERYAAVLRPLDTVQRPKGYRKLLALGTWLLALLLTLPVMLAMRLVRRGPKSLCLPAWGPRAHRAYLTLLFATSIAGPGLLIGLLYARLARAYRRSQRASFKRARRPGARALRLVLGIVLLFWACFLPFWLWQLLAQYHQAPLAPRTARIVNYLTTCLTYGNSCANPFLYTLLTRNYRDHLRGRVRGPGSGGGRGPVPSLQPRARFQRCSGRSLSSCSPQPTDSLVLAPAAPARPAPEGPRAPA
Method: To 1 x 10^8 CHO/GPR14 cells were added 10 ml of homogenate buffer (10 mM NaHCO3, 5 mM EDTA, 0.5 mM PMSF, 1µg/ml pepstatin, 4µg/ml E64, 20µg/ml leupeptin), and disrupted using Polytron (12,000 rpm, 1 minute). Cell debris solution was centrifuged at 1,000g for 15 minutes to obtain a supernatant. The supernatant was then […] (in Beckman type 30 rotor, 30,000 rpm, 1 hour), and the resultant precipitant was collected as human GPR14-expressing CHO cell fraction.
Isotope-labeled human urotensin II to be used in experiments for testing inhibition of binding was prepared as described below. 5 µg of human urotensin II (available from Peptide Institute, Inc.) was dissolved in 25µl of 0.4M sodium acetate (pH 5.6). […]
Human GPR14-expressing CHO cell fraction was diluted in a membrane diluting buffer (20mM phosphate buffer (pH7.3), 150mM NaCl, 5mM MgCl2,0.1% BSA, 0.05% CHAPS, 0.5mM PMSF, 0.1µg/ml Pepstatin, 20µg/ml Leupeptin, 4µg/ml E-64) to prepare a solution of cell membrane fraction (protein concentration:3µg/ml) for assay. […] Next, the filter was washed three times with membrane diluting buffer (0.2ml), added with 20µl of Microscinti 20 (Packard), and determined for radioactivity in Topcount (Packard). Specific-binding is calculated by subtracting non-specific binding from the total binding. […]

[1] = molecular target: T2, human GPR14-expressing CHO cell (Homo sapiens, UniProt Q9UKP6); experiment: Change in intracellular calcium concentration in human GPR14-expressing CHO cells (FLIPR), antagonist activity assay; type: cell-based; conditions: 10µl of 10nM urotensin II added, Fluo3, FLIPR
T2 construct: expressed in transfected cells
T2 sequence (Q9UKP6 1-389): T1 sequence (Q9UKP6 1-389)
Method: After the transformant E. coli DH5α/pcDNA3.1-hGPR14 prepared in Reference Example 2 was cultured, plasmid DNA for pcDNA3.1-hGPR1 was prepared by using Plasmid Midi Kit (Qiagen). The plasmid DNA was introduced into CHO dhfr cells using CellPhect Transfection Kit (Amersham Pharmacia Biotech) according to the protocol appended thereto. 10µg of DNA was co-precipitated with calcium phosphate to prepare a suspension which was then added to a 10cm petri dish on which 5 x 10^5 or 1 x 10^6 CHO dhfr^- cells had previously been inoculated 24 hours before then. Cells were cultured in a MEMα medium containing 10% fetal bovine serum for one day, subcultured, and cultured in a selection medium, a MEMα medium containing 0.4 mg/ml G418 (GIBCO BRL) and 10% dialysis fetal bovine serum. Colonies of transformed cells (CHO/hGPR14), which were human GPR14-expessing CHO cells growing in the selection medium, were selected.
GPR14-expressing CHO cells were inoculated on a 96-well plate at 1×10^4 cell/well, cultured for 48 hours, and then washed with 0.1ml of HBSS containing 20mM HEPES(pH7.4), 1% FCS and 1% penicillin-streptomycin (hereinafter referred to as "wash buffer"). Next, 100µl of another wash buffer containing 4µM Fluo3, 0.04% pluronic acid and 2.5mM probenicid (hereinafter referred to as "reaction buffer") was added thereto for reaction at 37°C for 1 hour. […]

Row | Compound | IC50 (human GPR14) | urotensin II-induced increase in intracellular calcium concentration [1]
1 | Nc1c2c(nc3ccccc13)N(Cc1ccccc1)CC2 [compound 3] | 33 nM | –
2 | 1-benzyl-6-bromo-2,3-dihydro-1H-pyrrolo [2,3-b] quinoline-4-ylamine [Synthesis Example 1] | – | inhibited
3 | Nc1c2c(nc3ccc(Br)cc13)N(Cc1ccccc1)CC2 [compound 2] | 2.4 nM | inhibited

— patent EP1262195A1, “VASOACTIVE AGENTS” (Takeda Chemical Industries, Ltd., priority 2000, dated 2001)
